Assay results taken from ChEMBL document CHEMBL4321837, “Discovery of Potent and Orally Effective Dual Janus Kinase 2/FLT3 Inhibitors for the Treatment of Acute Myelogenous Leukemia and Myeloproliferative Neoplasms” (J Med Chem, 2019).

What was measured:
[1] = Anti-myelofibrosis activity against mouse BAF3(transformed) cells harboring with JAK2 V617F mutant allografted in NOD/SCID mouse assessed as reduction in spleen weight at 60 mg/kg, po qd for 20 days measured on day 25 relative to control; format: functional
[2] = Anti-myelofibrosis activity against mouse BAF3(transformed) cells harboring with JAK2 V617F mutant allografted in NOD/SCID mouse assessed as reduction in liver weight at 60 mg/kg, po qd for 20 days measured on day 25 relative to control; format: functional
SET-2 = experiment: Antiproliferative activity against human SET2 cells overexpressing JAK2 […] mutant assessed as reduction in cell growth after 72 hrs by MTT assay; format: functional, cell-based; conditions: SET-2, 72 h
[3] = target: T1, Tyrosine-protein kinase JAK2 (Homo sapiens, UniProt O60674); experiment: Inhibition of human JAK2 (808 to end residues) assessed as residual activity at 100 nM using KTFCGTPEYLAP as substrate after 40 mins in presence of [gamma33P]-ATP by scintillation counting based radiometric assay relative to control
T1 sequence (O60674 whole entry): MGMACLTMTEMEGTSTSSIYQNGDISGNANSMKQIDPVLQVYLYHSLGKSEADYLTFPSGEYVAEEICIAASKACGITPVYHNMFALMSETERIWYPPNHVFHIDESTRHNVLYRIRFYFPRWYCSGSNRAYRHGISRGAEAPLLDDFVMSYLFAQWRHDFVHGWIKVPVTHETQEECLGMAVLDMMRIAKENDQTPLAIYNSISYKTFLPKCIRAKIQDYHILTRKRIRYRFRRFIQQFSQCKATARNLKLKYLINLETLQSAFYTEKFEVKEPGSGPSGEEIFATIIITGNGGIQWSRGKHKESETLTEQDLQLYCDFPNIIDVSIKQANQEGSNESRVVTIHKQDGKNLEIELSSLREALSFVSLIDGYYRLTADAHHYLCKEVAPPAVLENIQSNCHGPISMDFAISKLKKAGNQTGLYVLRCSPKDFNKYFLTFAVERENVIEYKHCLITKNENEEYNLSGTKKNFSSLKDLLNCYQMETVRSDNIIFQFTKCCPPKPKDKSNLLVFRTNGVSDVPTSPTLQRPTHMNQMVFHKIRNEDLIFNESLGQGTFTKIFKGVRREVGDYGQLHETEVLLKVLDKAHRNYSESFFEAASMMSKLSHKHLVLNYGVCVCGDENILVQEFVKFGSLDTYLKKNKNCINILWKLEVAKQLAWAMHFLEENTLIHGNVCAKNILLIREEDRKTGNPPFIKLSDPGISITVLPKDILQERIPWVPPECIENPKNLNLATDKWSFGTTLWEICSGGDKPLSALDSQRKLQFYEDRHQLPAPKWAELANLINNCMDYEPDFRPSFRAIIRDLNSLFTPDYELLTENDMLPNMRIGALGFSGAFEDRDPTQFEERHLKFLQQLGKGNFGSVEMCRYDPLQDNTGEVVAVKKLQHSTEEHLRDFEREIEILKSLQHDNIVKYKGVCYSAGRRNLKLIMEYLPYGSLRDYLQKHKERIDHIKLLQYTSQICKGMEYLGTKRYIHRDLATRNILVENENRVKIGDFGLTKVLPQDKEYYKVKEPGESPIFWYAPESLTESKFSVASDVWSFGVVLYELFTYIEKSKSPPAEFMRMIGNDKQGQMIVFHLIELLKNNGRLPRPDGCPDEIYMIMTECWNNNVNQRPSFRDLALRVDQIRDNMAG

[4] = target: T2, Tyrosine-protein kinase JAK1 (Homo sapiens, UniProt P23458); experiment: Inhibition of human JAK1 (866 to end residues) assessed as residual activity at 100 nM using GEEPLYWSFPAKK as substrate after 40 mins in presence of [gamma33P]-ATP by scintillation counting based radiometric assay relative to control
T2 sequence (P23458 whole entry): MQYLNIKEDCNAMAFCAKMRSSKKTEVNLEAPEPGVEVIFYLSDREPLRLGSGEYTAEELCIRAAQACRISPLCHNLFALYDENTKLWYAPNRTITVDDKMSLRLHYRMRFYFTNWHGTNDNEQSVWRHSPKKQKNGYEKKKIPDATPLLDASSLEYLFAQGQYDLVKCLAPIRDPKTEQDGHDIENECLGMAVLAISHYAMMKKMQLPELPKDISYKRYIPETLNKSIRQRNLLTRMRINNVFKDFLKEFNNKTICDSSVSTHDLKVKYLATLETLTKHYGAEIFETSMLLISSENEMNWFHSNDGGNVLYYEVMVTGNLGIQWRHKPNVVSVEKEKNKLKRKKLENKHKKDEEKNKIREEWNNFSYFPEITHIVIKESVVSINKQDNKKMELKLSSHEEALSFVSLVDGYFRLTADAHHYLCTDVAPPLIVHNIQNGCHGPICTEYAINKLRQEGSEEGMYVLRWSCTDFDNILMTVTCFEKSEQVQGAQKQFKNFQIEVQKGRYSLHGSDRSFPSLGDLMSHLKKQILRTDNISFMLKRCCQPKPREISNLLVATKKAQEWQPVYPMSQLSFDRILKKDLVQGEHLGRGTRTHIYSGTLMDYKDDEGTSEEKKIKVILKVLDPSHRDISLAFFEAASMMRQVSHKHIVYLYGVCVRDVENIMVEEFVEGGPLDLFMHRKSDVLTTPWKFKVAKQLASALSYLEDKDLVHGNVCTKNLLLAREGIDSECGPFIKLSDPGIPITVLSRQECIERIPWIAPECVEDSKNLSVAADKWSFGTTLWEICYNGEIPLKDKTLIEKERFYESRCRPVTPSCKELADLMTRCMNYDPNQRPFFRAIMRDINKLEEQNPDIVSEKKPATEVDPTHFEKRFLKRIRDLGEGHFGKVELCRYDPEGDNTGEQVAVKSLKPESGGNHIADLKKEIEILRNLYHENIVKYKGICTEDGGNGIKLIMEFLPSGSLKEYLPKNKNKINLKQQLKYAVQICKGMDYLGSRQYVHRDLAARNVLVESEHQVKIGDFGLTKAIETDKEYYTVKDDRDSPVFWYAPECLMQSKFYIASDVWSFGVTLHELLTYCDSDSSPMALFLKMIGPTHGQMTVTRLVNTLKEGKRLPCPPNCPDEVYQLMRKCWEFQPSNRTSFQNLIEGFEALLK

[5] = target: T1, Tyrosine-protein kinase JAK2; experiment: Inhibition of human JAK2 (808 to end residues) using KTFCGTPEYLAP as substrate after 40 mins in presence of [gamma33P]-ATP by scintillation counting based radiometric assay
Cytochrome P450 3A4 = Cytochrome P450 3A4 (Homo sapiens, UniProt P08684); experiment: Inhibition of CYP3A4 (unknown origin); format: ADME
Sequence of Cytochrome P450 3A4 (P08684 whole entry): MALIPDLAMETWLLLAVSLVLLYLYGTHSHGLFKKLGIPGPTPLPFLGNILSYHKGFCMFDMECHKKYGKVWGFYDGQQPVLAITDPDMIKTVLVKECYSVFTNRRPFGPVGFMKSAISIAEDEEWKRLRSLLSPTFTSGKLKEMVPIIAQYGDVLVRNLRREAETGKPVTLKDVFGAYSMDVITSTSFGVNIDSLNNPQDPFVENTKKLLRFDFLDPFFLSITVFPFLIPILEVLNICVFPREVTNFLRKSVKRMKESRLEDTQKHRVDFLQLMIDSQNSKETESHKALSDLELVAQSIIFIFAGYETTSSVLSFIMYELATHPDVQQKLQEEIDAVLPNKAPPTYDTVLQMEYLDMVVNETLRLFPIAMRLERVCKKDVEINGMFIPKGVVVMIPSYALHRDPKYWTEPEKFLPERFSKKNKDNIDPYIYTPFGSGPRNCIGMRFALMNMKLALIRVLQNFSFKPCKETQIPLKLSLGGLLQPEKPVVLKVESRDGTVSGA

[6] = Terminal elimination half life in Sprague-Dawley rat at 5 mg/kg, po measured up to 24 hrs by LC/MS/MS analysis; format: ADME, organism-based; conditions: in vivo; for half-life: Sprague-Dawley, read-out: beta t1/2 (converted)
[7] = target: T3, Receptor-type tyrosine-protein kinase FLT3 (Homo sapiens, UniProt P36888); experiment: Inhibition of human FLT3 (564 to end residues) using EAIYAAPFAKKK as substrate after 40 mins in presence of [gamma33P]-ATP by scintillation counting based radiometric assay
T3 sequence (P36888 whole entry): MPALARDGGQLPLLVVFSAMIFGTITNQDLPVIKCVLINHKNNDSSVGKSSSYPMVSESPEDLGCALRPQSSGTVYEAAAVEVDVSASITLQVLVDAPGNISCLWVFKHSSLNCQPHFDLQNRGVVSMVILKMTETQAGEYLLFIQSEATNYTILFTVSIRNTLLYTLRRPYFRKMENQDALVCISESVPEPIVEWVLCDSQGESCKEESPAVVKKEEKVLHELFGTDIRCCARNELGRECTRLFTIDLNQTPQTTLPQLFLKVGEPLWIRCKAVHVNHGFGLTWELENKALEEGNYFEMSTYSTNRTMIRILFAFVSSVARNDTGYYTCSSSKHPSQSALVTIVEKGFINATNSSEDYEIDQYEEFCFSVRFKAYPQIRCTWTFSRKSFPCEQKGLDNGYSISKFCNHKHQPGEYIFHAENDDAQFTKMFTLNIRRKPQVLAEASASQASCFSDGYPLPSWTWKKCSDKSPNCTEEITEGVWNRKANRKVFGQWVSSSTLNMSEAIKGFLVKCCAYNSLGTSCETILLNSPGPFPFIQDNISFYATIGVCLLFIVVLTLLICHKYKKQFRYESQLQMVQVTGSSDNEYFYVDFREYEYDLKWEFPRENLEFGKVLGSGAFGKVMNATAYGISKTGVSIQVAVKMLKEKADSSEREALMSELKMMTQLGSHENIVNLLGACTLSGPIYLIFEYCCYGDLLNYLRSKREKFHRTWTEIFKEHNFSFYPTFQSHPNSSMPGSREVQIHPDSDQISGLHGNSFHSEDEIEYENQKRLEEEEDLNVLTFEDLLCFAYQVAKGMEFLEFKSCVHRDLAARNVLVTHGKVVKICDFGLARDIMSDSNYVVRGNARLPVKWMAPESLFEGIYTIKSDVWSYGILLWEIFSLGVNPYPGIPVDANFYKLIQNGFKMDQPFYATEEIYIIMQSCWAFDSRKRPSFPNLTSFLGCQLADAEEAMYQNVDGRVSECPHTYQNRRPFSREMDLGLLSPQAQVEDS

[8] = target: Receptor-type tyrosine-protein kinase FLT3 (Homo sapiens) (UniProt P36888); experiment: Inhibition of human FLT3 (564 to end residues) assessed as residual activity at 100 nM using EAIYAAPFAKKK as substrate after 40 mins in presence of [gamma33P]-ATP by scintillation counting based radiometric assay relative to control
[9] = target: T4, Tyrosine-protein kinase JAK3 (Homo sapiens, UniProt P52333); experiment: Inhibition of human JAK3 (781 to end residues) using GGEEEEYFELVKK as substrate after 40 mins in presence of [gamma33P]-ATP by scintillation counting based radiometric assay
T4 sequence (P52333 whole entry): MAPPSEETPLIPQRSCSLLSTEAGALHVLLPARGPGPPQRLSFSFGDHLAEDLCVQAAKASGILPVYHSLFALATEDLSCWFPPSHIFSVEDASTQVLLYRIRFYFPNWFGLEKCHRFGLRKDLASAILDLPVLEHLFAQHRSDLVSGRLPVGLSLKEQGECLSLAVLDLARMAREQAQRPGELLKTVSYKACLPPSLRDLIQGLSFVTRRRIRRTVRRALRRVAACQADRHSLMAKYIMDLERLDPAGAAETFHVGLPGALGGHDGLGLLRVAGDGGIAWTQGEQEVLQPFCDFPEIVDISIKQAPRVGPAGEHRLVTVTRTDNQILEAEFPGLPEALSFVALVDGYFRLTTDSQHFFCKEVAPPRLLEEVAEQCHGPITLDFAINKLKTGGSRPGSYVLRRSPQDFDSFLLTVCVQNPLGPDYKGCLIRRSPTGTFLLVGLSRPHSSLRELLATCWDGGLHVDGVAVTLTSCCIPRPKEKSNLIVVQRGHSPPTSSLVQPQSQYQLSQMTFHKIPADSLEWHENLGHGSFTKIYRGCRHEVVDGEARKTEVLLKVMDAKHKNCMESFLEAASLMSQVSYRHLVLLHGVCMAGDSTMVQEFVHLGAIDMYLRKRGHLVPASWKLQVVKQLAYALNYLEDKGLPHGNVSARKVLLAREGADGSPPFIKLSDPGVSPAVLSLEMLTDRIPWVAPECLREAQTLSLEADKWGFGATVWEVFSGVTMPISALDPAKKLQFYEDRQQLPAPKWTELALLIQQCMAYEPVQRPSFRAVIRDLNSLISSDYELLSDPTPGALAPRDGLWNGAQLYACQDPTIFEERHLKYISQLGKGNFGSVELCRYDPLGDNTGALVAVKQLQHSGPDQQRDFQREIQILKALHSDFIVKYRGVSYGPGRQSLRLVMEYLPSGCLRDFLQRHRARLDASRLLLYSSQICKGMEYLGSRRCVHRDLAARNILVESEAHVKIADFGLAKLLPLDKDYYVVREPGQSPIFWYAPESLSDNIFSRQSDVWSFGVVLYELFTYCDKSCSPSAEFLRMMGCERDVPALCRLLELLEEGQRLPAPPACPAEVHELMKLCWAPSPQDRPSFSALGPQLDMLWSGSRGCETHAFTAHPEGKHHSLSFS

[10] = Oral bioavailability in Sprague-Dawley rat at 5 mg/kg measured up to 24 hrs by LC/MS/MS analysis; format: ADME, organism-based; conditions: in vivo
[11] = target: T2, Tyrosine-protein kinase JAK1; experiment: Inhibition of human JAK1 (866 to end residues) GEEPLYWSFPAKK as substrate after 40 mins in presence of [gamma33P]-ATP by scintillation counting based radiometric assay
[12] = Cmax in Sprague-Dawley rat at 5 mg/kg, po measured up to 24 hrs by LC/MS/MS analysis; format: ADME, organism-based; set-up: dose 5 mg/kg, route oral; conditions: in vivo
Homo sapiens [13] = species on record: Homo sapiens; experiment: Selectivity ratio of IC50 for inhibition of human JAK3 (781 to end residues) to inhibition of human JAK2 (808 to end residues)
MV4-11 = experiment: Antiproliferative activity against FLT3-ITD-positive human MV4-11 cells assessed as reduction in cell growth after 72 hrs by MTT assay; format: functional, cell-based; conditions: MV4-11, 72 h
Homo sapiens [14] = species on record: Homo sapiens; experiment: Selectivity ratio of IC50 for inhibition of human JAK1 (866 to end residues) to inhibition of human JAK2 (808 to end residues)
[15] = Tmax in Sprague-Dawley rat at 5 mg/kg, po measured up to 24 hrs by LC/MS/MS analysis; format: ADME, organism-based; conditions: in vivo
[16] = target: T5, Tyrosine-protein kinase JAK3 (Homo sapiens) (UniProt P52333); experiment: Inhibition of human JAK3 (781 to end residues) assessed as residual activity at 100 nM using GGEEEEYFELVKK as substrate after 40 mins in presence of [gamma33P]-ATP by scintillation counting based radiometric assay relative to control
T5 sequence (whole entry): T4 sequence (P52333 whole entry)

MOLM-13 = experiment: Antiproliferative activity against FLT3-ITD-positive human MOLM13 cells assessed as reduction in cell growth after 72 hrs by MTT assay; format: functional, cell-based; conditions: MOLM-13, 72 h
[17] = AUC (0 to t) in Sprague-Dawley rat at 5 mg/kg, po measured up to 24 hrs by LC/MS/MS analysis; format: ADME, organism-based; set-up: dose 5 mg/kg, time < 24 hr, route oral; conditions: in vivo; for AUC(0-t) at 24 h: Sprague-Dawley

SMILES | Activity [3] | Activity [4] | IC50 [5] | IC50 (Cytochrome P450 3A4) | half-life [6] | IC50 [7] | Activity [8] | IC50 [9] | bioavailability [10] | IC50 [11] | Cmax ([12]; Sprague-Dawley, read-out: Cmax) | Ratio IC50 (Homo sapiens [13]) | IC50 (MV4-11) | Ratio IC50 (Homo sapiens [14]) | Tmax ([15]; Sprague-Dawley, read-out: Tmax) | Activity [16] | IC50 (MOLM-13) | AUC(0-t) at 24 h [17] | other results
Cc1cnc(Nc2ccc(OCCN3CCCC3)cc2)nc1Nc1cccc(S(=O)(=O)NC(C)(C)C)c1 [FEDRATINIB] |  |  |  |  |  |  |  |  |  |  |  |  |  |  |  |  |  |  | inhibition in vivo at 60 mg/kg [1]: 24.7%; inhibition in vivo at 60 mg/kg [2]: 69.8%
C1=N/C2=N/c3ccc(OCCN4CCCC4)c(c3)COC/C=C/COCc3cccc(c3)C(=C1)N2 [PACRITINIB] |  |  |  |  |  |  |  |  |  |  |  |  |  |  |  |  |  |  | IC50 (SET-2): 916 nM
Cc1cnc(Nc2ccc(N3CCC(N(C)CCCO)CC3)c(F)c2)nc1-c1cnn(C(C)C)c1 | 5% | 22% | 1 nM | > 100 µM | 468 min | 9 nM | 7% | 23 nM | 43% | 47 nM | 88.9 ng/mL | 23 | 8.3 nM | 47 | 4.1 h | 31% | 82 nM | 1510 ng·h/mL | 

Continued, in another order:

Activity [3] | Activity [4] | IC50 [5] | IC50 (Cytochrome P450 3A4) | half-life [6] | IC50 [7] | Activity [8] | IC50 [9] | bioavailability [10] | IC50 [11] | Cmax ([12]; Sprague-Dawley, read-out: Cmax) | Ratio IC50 (Homo sapiens [13]) | IC50 (MV4-11) | Ratio IC50 (Homo sapiens [14]) | Tmax ([15]; Sprague-Dawley, read-out: Tmax) | Activity [16] | IC50 (MOLM-13) | AUC(0-t) at 24 h [17] | SMILES | other results
4% | 27% | 2 nM | > 100 µM | 354 min | 15 nM | 7% | 39 nM | 31% | 76 nM | 56.5 ng/mL | 19 | 6.4 nM | 38 | 2.3 h | 33% | 24 nM | 305 ng·h/mL | CCCCN(C)C1CCN(c2ccc(Nc3ncc(C)c(-c4cnn(C(C)C)c4)n3)cc2F)CC1 | 
5% | 24% | 3 nM | > 100 µM |  | 11 nM | 5% | 103 nM | 45% | 121 nM |  | 34 | 4.3 nM | 40 |  | 44% | 50 nM |  | Cc1cnc(Nc2ccc(N3CCC(N(C)CCN4CCN(C)CC4)CC3)c(F)c2)nc1-c1cnn(C(C)C)c1 | beta t1/2 ([6]; 24 h): 16 h; Cmax ([12]; 24 h): 2.3 ng/mL; Tmax ([15]; 24 h): 2.1 h; AUCt ([17]; 24 h): 2265 ng·h/mL
